Patent publication US5145839A, “Pharmaceutical composition and method of use” (priority 1988, dated 1992)

Experiments:
cancer cell DNA = assay: UV absorbance at 260 nm (hypochromicity, DNA chain contraction), cancer cell DNA; details: 20 μg DNA in 1 ml Tris-HCl pH 7.3, room temperature, FIGS. 5a, 5b
Description: (§1) Naringin prepared in accordance with Example 1, and a commercial sample of naringenin prepared by Roth Co. of France, were used for comparison. […] The results are expressed as decrease of UV absorbance (hypochromicity) in the presence of various concentrations of the agent. The hypochromicity corresponds to DNA chain contraction, while hyperchromicity would correspond to DNA chain opening (i.e. the breaking of hydrogen bonds which normally hold the two DNA chains together). The spleen and bone marrow DNAs used in this test were from normal human spleen and bone marrow tissue cells. UV absorbance at wavelength of 260 nm for different DNAs from normal and cancer cells is performed at room temperature. 20 μg (micrograms) of DNA (deoxyribonucleic acid) are dissolved in 1 ml of Tris-HC1 buffer (10^-2 molar, pH adjusted to 7.3, solution made using sterile distilled water). The absorbance is measured before and after addition of either naringin or naringenin. The blank cuvette contains an equivalent amount of naringin or naringenin, but not DNA. The contact between DNA and compound is of about one minute (very slight agitation). The absorbance at 260 nm is then measured. The results are expressed as diminution (%) of UV absorbance.

[1] = tested on: normal cell DNA (spleen and bone marrow); assay: UV absorbance at 260 nm (hypochromicity, DNA chain contraction), normal cell DNA; details: normal human spleen and bone marrow DNA, 20 μg in 1 ml Tris-HCl pH 7.3, 260 nm; FIGS. 5a, 5b
Description: as §1

[2] = tested on: tobacco mosaic virus (TMV); assay: tobacco mosaic virus multiplication on tobacco leaf (plaque forming units); details: 20-50 micrograms per milliliter, virus incubated at 30° C. for 30 min.; xanthy tobacco leaf; checked two to three days later; FIG. 7
Procedure: The effect of naringin prepared according to Example 1, of commercial naringin and of commercial naringenin has been tested on tobacco mosaic virus (TMV). In this experiment, viral suspension containing 2 μg of virus/ml of distilled water, was incubated at 30° C. for 30 min. with each of the above compounds (20-50 micrograms per milliliter) and then 20 μl placed on one-half of the leaf ([…] tobacco) while the same concentration of untreated virus was placed on the other half of the same leaf. The appearance of viral disease was checked two to three days later. […] Naringenin or commercial naringin gave similar results.

[3] = tested on: Terminal deoxynucleotidyl Transferase (TdT); assay: in vitro activity of TdT in cat leucosis vaccine (Leucocell); assay type: biochemical; details: 10 minutes at 36° C., pH 7.70, FIG. 6
Description: Both naringin and naringenin inhibit in vitro the activity of Terminal deoxynucleotidyl Transferase (TdT), an enzyme involved in the integration of viral genome into host cell. This enzyme is present in cat leucosis vaccine prepared by genetic engineering (Engerix® Leucocell vaccine), vaccine highly purified. I have previously shown that this enzyme catalyzes the polymerisation of d-TMP and d-CMP originating from d-TTP and d-CTP used respectively as substrates.
(§2) For testing the activity of TdT, the incubation medium (0.10 ml final volume) contains: 25 μmoles fresh solution of Tris-HC1 buffer pH 7.70; 2 μmoles MgCl2; (^3 d-NTP (deoxynucleoside-5'-triphosphate, 100,000 CPM). Increasing amounts of Leucocell vaccine (as indicated in FIG. 6) are used. Incubation for 10 minutes at 36° C., then addition of an equal volume of trichloroacetic acid (TCA 5%). Acid-precipitable material is filtered on millipore (Whatman GF/C), washed with 5% TCA then with 95° alcohol. After millipore drying, radioactivity of acid-insoluble material is measured in scintillation spectrometer Packard. The results are expressed as CPM (counts/minute)/sample.

[4] = tested on: Terminal deoxynucleotidyl Transferase (TdT); assay: in vitro activity of TdT which contaminates Engerix-vaccine antigen B; assay type: biochemical; details: TdT which contaminates Engerix-vaccine antigen B (DNA virus antigen), same conditions
Procedure: as §2
In contrast, the activity of TdT which contaminates Engerix®-vaccine antigen B (Med. Sci. Res. 1987, vol.15 pp. 529-530), an antigen prepared from DNA virus is not inhibited, under the same conditions, by naringin or naringenin. Thus both naringin and naringenin selectively interfere with the proliferation of RNA virus but not DNA virus. However, as RNA from RNA-virus is transcribed into DNA by reverse transcriptase before being integrated into cell genome (potential role of TdT), naringin and naringenin are equally useful agents in treatment of all DNA infections equally.

BALB C mice = assay: toxicity by intravenous route in BALB C mice; assay type: in vivo, mouse; details: for toxic effect: i.v. route, 10% DMSO, BALB C mice; for tolerability: i.v. injection or perfusion, doses from 250-1000 mg/kg (concluded)
Description: This example illustrates the absence of toxicity of naringin or naringenin injected by intravenous route to BALB C mice.

[5] = tested on: DNAs from different human cancer tissues, i.e. breast, colon and liver cancers; assay: in vitro synthesis (replication) of DNA from human cancer tissues; assay type: biochemical; details: FIG. 3
Description: (§3) […]
(§4) DNAs used were isolated from human cancer and normal tissues furnished by different hospitals as indicated in IRCS Medical Science 14: 809-810, 1986. The normal brain tissue originated from Macaca mulatta.

[6] = tested on: DNAs from normal tissues (human bone marrow and spleen); assay: in vitro synthesis (replication) of DNA from normal human tissues; assay type: biochemical; details: FIG. 3
Description: as §3, §4

[7] = tested on: DNA from normal monkey brain; assay: in vitro synthesis (replication) of DNA from normal monkey brain; assay type: biochemical; details: Macaca mulatta brain; FIG. 3
Description: as §3, §4

[8] = tested on: DNA from cancerous tissue; assay: in vitro synthesis of tritium-labeled cancer DNA, agent added at different points in time; assay type: biochemical; details: FIGS. 4a, 4b
Description: The same test method was used on DNA from cancerous tissue, determining the amount of tritium-labeled DNA synthesized over a period of time and the effect of introducing naringin at different points in time.

human cancer cells = assay: effect on in vitro cultured human cancer cells; assay type: cell-based; details: various concentrations; ovary cancer and leukemic cells resistant to classical chemotherapy; FIG. 2
Procedure: (§5) Naringin prepared in Example 1 has been used for determining its effect on in vitro cultured human cancer and normal cells, according to the method of Shoermaker R.H. et al., Cancer Research 45: 2145-2153, 1985). Culture medium contained 100 μg of penicillin and streptomycin in order to prevent bacterial contamination.

[9] = tested on: normal human bone marrow cells; assay: effect on in vitro cultured normal human bone marrow cells; assay type: cell-based; details: various concentrations; FIG. 2
Procedure: as §5

Ehrlich ascitic cells = assay: mice bearing Ehrlich ascitic cells; assay type: in vivo, Swiss mice; details: than lymphoma YC8 cells
Procedure: (§6) O BALB C mice bearing lymphoma YC8 (ascitic form) and Swiss mice bearing Ehrlich ascitic cells (20-22 grams, Charles River breeding) were distributed at random in sets of 10.
Set II: Mice bearing tumor cells received JO-1 (= naringin, Example 1): 0.2 ml/mouse, twice/day, i.p. route (for JO-1 concentrations, see Tables 1, 3, and 4, and FIG. 10.)
(§7) Ascitic tumor cells were taken in sterile medium from mice bearing these cells for 15-20 days. 0.1 ml of ascitic suspension was mixed with 10 ml of buffered solution (pH 7.2) : (NaCl 7.2 g/l; Na2 HPO4 4.3 g/l and KH2 PO4 0.4 g/l).
(§8) The number of cells was determined (by Malassez cell) and cellular suspension diluted in order to get cell number close to 40.000-50.000/ml. 0.1 ml of this suspension was immediately injected by i.p. route to mice in sets I, II and III and by i.m. route to mice in set IV.
(§9) Treatment: 48 hours after injection of tumor cells: the mice of set II received (i.p.) JO-1 heated at 37° and filtered on millipore, treatment for five consecutive days; the mice of set III were treated (i.p.) by a mixture of JO-1 and one of the antibiotics for 5 consecutive days; the mice of set I (control) received (i.p.) only isotonic solution for 5 consecutive days; the mice of set IV received (i.m.) JO-1 for 15 consecutive days.
Only the survivors in excellent physical condition were taken into consideration .

tumor cells = assay: mice bearing tumor cells treated with naringin and a chemotherapeutic agent; assay type: in vivo, mouse; details: with 5-fluorouracil, ARA-C, Endoxan, hydroxy-urea; i.p.; FIGS. 9a-9b, 10a-10d
Procedure: as §6
Set III: Mice bearing tumor cells received naringin (JO-1): 0.2 ml/mouse twice/day (for concentrations, see FIGS. 9 and 10), i.p. route and, at the same time these mice received a chemotherapeutic agent (for concentrations, see FIGS. 9 and 10) i.p. route.
as §7, §8
as §9, with “days. […]” for “days.”

[10] = biological activity compared with commercial compounds; details: compared with that exhibited by commercial compounds

| Structure (SMILES) | contraction of cancer cell DNA chains (hypochromicity) (cancer cell DNA) | contraction of normal cell DNA chains (hypochromicity) [1] | inhibition of TMV multiplication [2] | inhibition of in vitro activity of TdT [3] | inhibition of in vitro activity of TdT [4] | toxic effect (BALB C mice; 125 mg/kg) | toxic effect (BALB C mice; 250 mg/kg) | toxic effect (BALB C mice; 500 mg/kg) | tolerability (BALB C mice) | inhibition of in vitro synthesis of DNAs from human cancer tissues [5] | effect on in vitro synthesis of DNAs from normal human tissues [6] | effect on in vitro synthesis of DNA from normal monkey brain [7] | effect on DNA chain elongation ([8]; added after the reaction starts) | effect on DNA initiation ([8]; given at zero time of incubation) | inhibition of in vitro cultured human cancer cells (human cancer cells) | effect on in vitro cultured normal human bone marrow cells [9] | sensitivity of Ehrlich ascitic cells to naringin compared with lymphoma YC8 cells (Ehrlich ascitic cells) | synergistic action with classical antibiotics (tumor cells) | biological activity [10] |
| --- | --- | --- | --- | --- | --- | --- | --- | --- | --- | --- | --- | --- | --- | --- | --- | --- | --- | --- | --- |
| O=C1C[C@@H](c2ccc(O)cc2)Oc2cc(O)cc(O)c21 [naringenin] | contract cancer cell DNA chains | either no effect or a very slight effect | inhibits TMV multiplication | inhibit in vitro activity of TdT | not inhibited | no toxic effect | no toxic effect | no toxic effect | well tolerated |  |  |  |  |  |  |  |  |  |  |
| C[C@@H]1O[C@@H](O[C@H]2[C@H](Oc3cc(O)c4c(c3)O[C@H](c3ccc(O)cc3)CC4=O)O[C@H](CO)[C@@H](O)[C@@H]2O)[C@H](O)[C@H](O)[C@H]1O [naringin] | contract cancer cell DNA chains | either no effect or a very slight effect | inhibits TMV multiplication | inhibit in vitro activity of TdT | not inhibited | no toxic effect | no toxic effect | no toxic effect | well tolerated | strongly inhibits | practically unaffected | practically unaffected | stops DNA chain elongation | acts on DNA initiation sites | strongly inhibits | little effect | less sensitive | synergistic action | better biological activity |
